In publication PMC6792352, “Limited Chemical Structural Diversity Found to Modulate Thyroid Hormone Receptor in the Tox21 Chemical Library” (Environmental Health Perspectives, 2019) one finds CC50 data, which are given here for 67 compounds.

The structures appear in SMILES notation. Counter-ions that a name gives are not always drawn.

A short description of the first data set: in vitro. The note with it: rat, gh3-tre-luc cells, AC50 (uM) modified / 1000.
In the case of `CC(=O)CC(=O)Nc1ccc(S(=O)(=O)O)cc1` [Potassium 4-[(3-oxobutanoyl)amino]benzenesulfonate], the CC50 at 24 h is greater than 90 µM. `O=S(=O)(O)c1ccc2cc(O)ccc2c1` [Potassium 6-hydroxynaphthalene-2-sulfonate] yielded a CC50 at 24 h greater than 90 µM. For the compound `O=C(O)CNc1ccccc1` [Potassium anilinoacetate], the CC50 at 24 h is greater than 90 µM.

Compound `O=C(O)c1nc(=O)[nH]c(=O)[nH]1` [Potassium oxonate] returned a CC50 at 24 h greater than 50 µM.

Compound `N#CS` [Potassium thiocyanate] returned a CC50 at 24 h greater than 90 µM. Take `CC(=O)Nc1ccc(OCC(O)CNC(C)C)cc1` (stereo not shown) [Practolol]: the CC50 at 24 h was greater than 50 µM. For the compound `C#CCC(Cc1cnc2nc(N)nc(N)c2n1)c1ccc(C(=O)N[C@@H](CCC(=O)O)C(=O)O)cc1` (stereo partly shown) [Pralatrexate], the CC50 at 24 h is greater than 50 µM.

In turn, `C[n+]1ccccc1/C=N/O` [Pralidoxime chloride] returned a half-maximal cytotoxic concentration (CC50) at 24 h greater than 20 µM. Regarding `C#CCC1=C(C)C(OC(=O)C2C(C=C(C)C)C2(C)C)CC1=O` (stereo not shown) [Prallethrin], it took 66.6 µM to reach half-maximal cytotoxicity (CC50 at 24 h). The compound `CCCN[C@H]1CCc2nc(N)sc2C1` [Pramipexole dihydrochloride monohydrate] gave a CC50 at 24 h greater than 100 µM.

In the case of `CCCCOc1ccc(OCCCN2CCOCC2)cc1` [Pramoxine hydrochloride], the CC50 at 24 h is greater than 20 µM. In the case of `O=C(N[C@H]1N=C(c2ccccc2F)c2cccc3c2N(CC3)C1=O)c1cc2ccccc2[nH]1` [Pranazepide], the CC50 at 24 h is greater than 50 µM. In turn, `O=C(Nc1cccc2c(=O)cc(-c3nnn[nH]3)oc12)c1ccc(OCCCCc2ccccc2)cc1` [Pranlukast] yielded a CC50 at 24 h greater than 50 µM. The same measure, in the same setting: the same measure for `CC(C)[N+](C)(C)CC(O)COc1cccc2ccccc12` (stereo not shown) [Pranolium chloride]: greater than 50 µM; for `CC(C(=O)O)c1ccc2c(c1)Cc1cccnc1O2` (stereo not shown) [Pranoprofen]: greater than 50 µM. Take `CC(=O)Oc1cc2c(s1)CCN(C(C(=O)C1CC1)c1ccccc1F)C2` (stereo not shown) [Prasugrel hydrochloride]: the CC50 at 24 h is greater than 50 µM.

`CC[C@H](C)C(=O)O[C@H]1C[C@H](O)C=C2C=C[C@H](C)[C@H](CC[C@@H](O)C[C@@H](O)CC(=O)O)[C@H]21` [Pravastatin sodium] registered a CC50 at 24 h greater than 90 µM.

Take `N=C(N)n1cccn1` [Praxadine hydrochloride]: the CC50 at 24 h was greater than 50 µM. For `O=C1CN=C(c2ccccc2)c2cc(Cl)ccc2N1CC1CC1` [Prazepam], the CC50 at 24 h is greater than 90 µM. For `O=C(C1CCCCC1)N1CC(=O)N2CCc3ccccc3C2C1` (stereo not shown) [Praziquantel], the CC50 at 24 h is greater than 90 µM. Consider `COc1cc2nc(N3CCN(C(=O)c4ccco4)CC3)nc(N)c2cc1OC` [Prazosin], for which the CC50 at 24 h stood at 8.15 µM. That is a single-digit micromolar value. Take `CCOC(=O)O[C@]1(C(=O)COC(=O)CC)CC[C@H]2[C@@H]3CCC4=CC(=O)C=C[C@]4(C)[C@H]3[C@@H](O)C[C@@]21C` [Prednicarbate]: the CC50 at 24 h is greater than 20 µM. For `C[C@]12C=CC(=O)C=C1CC[C@@H]1[C@@H]2[C@@H](O)C[C@@]2(C)[C@H]1CC[C@]2(O)C(=O)COC(=O)CCC(=O)O` [Prednisolone 21-hemisuccinate], the CC50 at 24 h is greater than 50 µM. In the case of `CC(=O)OCC(=O)[C@@]1(O)CC[C@H]2[C@@H]3CCC4=CC(=O)C=C[C@]4(C)[C@H]3[C@@H](O)C[C@@]21C` [Prednisolone acetate], the half-maximal cytotoxic concentration (CC50) at 24 h is greater than 50 µM. `C[C@]12C=CC(=O)C=C1CC[C@@H]1[C@@H]2[C@@H](O)C[C@@]2(C)[C@H]1CC[C@]2(O)C(=O)CO` [Prednisolone] returned a CC50 at 24 h greater than 90 µM. The compound `C[C@]12C=CC(=O)C=C1CC[C@@H]1[C@@H]2C(=O)C[C@@]2(C)[C@H]1CC[C@]2(O)C(=O)CO` [Prednisone] registered a CC50 at 24 h greater than 90 µM. In turn, `C[C@H](O)[C@H]1CC[C@H]2[C@@H]3CC[C@@H]4C[C@H](O)CC[C@]4(C)[C@H]3CC[C@]12C` [Pregnandiol] showed a CC50 at 24 h greater than 50 µM.

The compound `CC(=O)[C@H]1[C@H](C#N)C[C@H]2[C@@H]3CC=C4C[C@@H](O)CC[C@]4(C)[C@H]3CC[C@@]21C` [Pregnenolone carbonitrile] showed a CC50 at 24 h greater than 60 µM. With `CC(=O)[C@H]1CC[C@H]2[C@@H]3CC=C4C[C@@H](O)CC[C@]4(C)[C@H]3CC[C@]12C` [Pregnenolone], the CC50 at 24 h was greater than 90 µM. In turn, `OC(CCN1CCCCC1)(c1ccccc1)c1ccccc1` [Pridinol] showed a CC50 at 24 h of 25.8 µM. In turn, `CC[N+]1(CC)CCC(=C(c2ccccc2)c2ccccc2)C1C` (stereo not shown) [Prifinium bromide] returned a CC50 at 24 h greater than 50 µM. `CCCNC(C)C(=O)Nc1ccccc1C` (stereo not shown) [Prilocaine hydrochloride] gave a CC50 at 24 h greater than 50 µM.

For the compound `COc1cc(NC(C)CCCN)c2ncccc2c1` (stereo not shown) [Primaquine diphosphate], the CC50 at 24 h came out at 15 µM. The same measure, in the same setting: the same measure for `CCC1(c2ccccc2)C(=O)NCNC1=O` [Primidone]: greater than 90 µM. In turn, `CCCC(C(=O)OCCN(CC)CC)(c1ccccc1)c1ccccc1` [Proadifen hydrochloride] displayed a CC50 at 24 h of 24.7 µM. Compound `CCCN(CCC)S(=O)(=O)c1ccc(C(=O)O)cc1` [Probenecid] returned a CC50 at 24 h greater than 90 µM. For `CC(C)(Sc1cc(C(C)(C)C)c(O)c(C(C)(C)C)c1)Sc1cc(C(C)(C)C)c(O)c(C(C)(C)C)c1` [Probucol], the CC50 at 24 h is greater than 20 µM.

Compound `CCN(CC)CCNC(=O)c1ccc(N)cc1` [Procainamide hydrochloride] gave a CC50 at 24 h greater than 90 µM. `CNNCc1ccc(C(=O)NC(C)C)cc1` [Procarbazine hydrochloride] returned a CC50 at 24 h greater than 50 µM. The same measure, in the same setting: the same measure for `CC[C@@H](NC(C)C)[C@@H](O)c1ccc(O)c2[nH]c(=O)ccc12` [Procaterol]: greater than 50 µM; for `CN1CCN(CCCN2c3ccccc3Sc3ccc(Cl)cc32)CC1` [Prochlorperazine dimaleate]: 5.73 µM; for `O=C(O)CCc1nc2ccccc2[nH]1` [Procodazole]: greater than 50 µM. On the same count and under the same terms, to `CC(C)(C#N)Nc1nc(Cl)nc(NC2CC2)n1` [Procyazine] belongs greater than 90 µM; to `OC(CCN1CCCC1)(c1ccccc1)C1CCCCC1` (stereo not shown) [Procyclidine hydrochloride], 10.6 µM. Compound `CC12CC1(C)C(=O)N(c1cc(Cl)cc(Cl)c1)C2=O` (stereo not shown) [Procymidone] returned a CC50 at 24 h greater than 90 µM. Consider `CCCN(CCC)c1c([N+](=O)[O-])cc(C(F)(F)F)c(N)c1[N+](=O)[O-]` [Prodiamine], for which the CC50 at 24 h amounted to 14.5 µM. On the same count and under the same terms, the same measure for `Nc1ccc2cc3ccc(N)cc3nc2c1` [Proflavin hydrochloride]: greater than 90 µM; for `CCCN(CCC)C(=O)C(CCC(=O)OCCCN1CCN(CCOC(=O)Cc2c(C)n(C(=O)c3ccc(Cl)cc3)c3ccc(OC)cc23)CC1)NC(=O)c1ccccc1` (stereo not shown) [Proglumetacin]: 10.5 µM; for `CCCN(CCC)C(=O)C(CCC(=O)O)NC(=O)c1ccccc1` (stereo not shown) [Proglumide]: greater than 50 µM.

`[H]/N=C(\N/C(=N/[H])Nc1ccc(Cl)cc1)NC(C)C` [Proguanil hydrochloride] returned a CC50 at 24 h greater than 20 µM.

`O=C(O)[C@@H]1CCCN1` [Proline] displayed a CC50 at 24 h greater than 50 µM. The same measure, in the same setting: the same measure for `CN(C)CCCN1c2ccccc2Sc2ccccc21` [Promazine hydrochloride]: 4.95 µM; for `CSc1nc(NC(C)C)nc(NC(C)C)n1` [Prometryn]: greater than 90 µM. `CC(C)NCC(O)c1ccc2ccccc2c1` (stereo not shown) [Pronethalol] had a 50% cytotoxic concentration (CC50) at 24 h greater than 50 µM.

Consider `C=CCOC(=O)CCC1CCCCC1` [Prop-2-en-1-yl 3-cyclohexylpropanoate], for which the CC50 at 24 h is greater than 90 µM. For the compound `C=CCOC(=O)COCCC(C)C` [Prop-2-en-1-yl (3-methylbutoxy)acetate], the CC50 at 24 h was greater than 90 µM. Same read-out and setting: to `C=CCOC(=O)CCCCCC` [Prop-2-en-1-yl heptanoate] belongs greater than 90 µM.

The same data set, now with this note: rat, gh3-tre-luc cells, AC50 (uM) modified / 1000, Tox21_110001=Tox21_111475; viability, 1 nM T3 present, 24 h.
`CC(C)C[C@H](CN)CC(=O)O` [Pregabalin] displayed a CC50 at 24 h greater than 50 µM.

The same data set, now with this note: rat, gh3-tre-luc cells, AC50 (uM) modified / 1000, Tox21_110001=Tox21_111785; viability, 1 nM T3 present, 24 h.
The compound `COc1ccc(C(=O)c2c(C)n(CCN3CCOCC3)c3ccccc23)cc1` [Pravadoline] showed a half-maximal cytotoxic concentration (CC50) at 24 h greater than 50 µM.

The same data set, now with this note: rat, gh3-tre-luc cells, AC50 (uM) modified / 1000, Tox21_110001=Tox21_112859; viability, 1 nM T3 present, 24 h.
`CC(CC(C#N)(c1ccccc1)c1ccccc1)N(C)C` (stereo not shown) [Premethadone] returned a CC50 at 24 h of 21.6 µM.

The same data set, now with this note: rat, gh3-tre-luc cells, AC50 (uM) modified / 1000, Tox21_110001=Tox21_202098; viability, 1 nM T3 present, 24 h.
`COc1nc(NC(C)C)nc(NC(C)C)n1` [Prometon] showed a CC50 at 24 h greater than 90 µM.

Staying with this data set, now noted: rat, gh3-tre-luc cells, AC50 (uM) modified / 1000, Tox21_110001=Tox21_300396; viability, 1 nM T3 present, 24 h.
As to `O=S(=O)(O)C(F)(F)C(F)(F)C(F)(F)C(F)(F)C(F)(F)C(F)(F)F` [Potassium perfluorohexanesulfonate], the CC50 at 24 h is greater than 90 µM.

The same data set, now with this note: rat, gh3-tre-luc cells, AC50 (uM) modified / 1000, Tox21_110001=Tox21_300544; viability, 1 nM T3 present, 24 h.
`O=S(=O)(O)C(F)(F)C(F)(F)C(F)(F)C(F)(F)C(F)(F)C(F)(F)C(F)(F)C(F)(F)F` [Potassium perfluorooctanesulfonate]: the CC50 at 24 h came out at 49.4 µM.

Still in this data set, the particulars now being: rat, gh3-tre-luc cells, AC50 (uM) modified / 1000, Tox21_110001=Tox21_300752; viability, 1 nM T3 present, 24 h.
Compound `CCCSP(=O)(OCC)Oc1ccc(Br)cc1Cl` (stereo not shown) [Profenofos] registered a 50% cytotoxic concentration (CC50) at 24 h greater than 50 µM.

Staying with this data set, now noted: rat, gh3-tre-luc cells, AC50 (uM) modified / 1000, Tox21_110001=Tox21_301424; viability, 1 nM T3 present, 24 h.
Regarding `CNC(=O)Oc1cc(C)cc(C(C)C)c1` [Promecarb], the CC50 at 24 h is greater than 90 µM.

Staying with this data set, now noted: rat, gh3-tre-luc cells, AC50 (uM) modified / 1000, Tox21_110001=Tox21_301566; viability, 1 nM T3 present, 24 h.
In turn, `CCCN(CC1CC1)c1c([N+](=O)[O-])cc(C(F)(F)F)cc1[N+](=O)[O-]` [Profluralin] had a CC50 at 24 h of 76.2 µM.

The same data set, now with this note: rat, gh3-tre-luc cells, AC50 (uM) modified / 1000, Tox21_110001=Tox21_400051; viability, 1 nM T3 present, 24 h.
In turn, `O=S(=O)(O)C(F)(F)C(F)(F)C(F)(F)C(F)(F)F` [Potassium perfluorobutanesulfonate] displayed a CC50 at 24 h greater than 100 µM.
